Data as given in US20100210682A1, “Repeated Dosing of TRPV1 Antagonists” (ABBOTT LABORATORIES, priority 2009, published 2010).

Experiments:
[1] = test system: post-operative thermal hyperalgesia; assay: Post-operative pain model in rats (skin incision), thermal hyperalgesia; type: in vivo; settings: po; rat, p.o., acute dosing, 24 h post-injury; read-out: ED50, reversal of thermal hyperalgesia
Procedure: The response to acute thermal stimulation was determined using a commercially available paw thermal stimulator (UARDG, University of California, San Diego, Calif.). Rats were placed individually in Plexiglass cubicles mounted on a glass surface maintained at 30° C., and allowed a 30 min habituation period. A thermal stimulus, in the form of radiant heat emitted from a focused projection bulb, was then applied to the plantar surface of each hind paw. In each test session, each rat was tested in three sequential trials at approximately 5 min intervals. Paw withdrawal latencies (PWLs) were calculated as the mean of the two shortest latencies. An assay cut-off was set at 20.5 s.
As described by Brennan et al. [Brennan T J, Vandermeulen E P, Gebhart G F. Characterization of a rat model of incisional pain. Pain 1996; 64:493-501], a 1 cm longitudinal incision was made through the skin and fascia of the plantar aspect of the foot, starting 0.5 cm from the proximal edge of the heel and extending toward the toes. The plantaris muscle was elevated and incised longitudinally with origin and insertion of the muscle remaining intact. The skin was then closed with two 5-0 nylon mattress sutures. After surgery, the animals were allowed to recover and housed individually with soft bedding. Animals were tested for mechanical allodynia using von Frey hairs and for thermal hyperalgesia as described above. […]

[2] = test system: bone cancer pain, C3H/HeJ mice; assay: Bone cancer pain model in mice (2472 sarcoma); type: in vivo; settings: mouse
Procedure: Male Sprague-Dawley rats (Charles River, Wilmington, Mass.) weighing 200-300 grams were utilized in most experiments. Animals were group housed in AAALAC approved facilities at Abbott Laboratories in a temperature-regulated environment with lights on between 0700 and 2000 h. Food and water were available ad libitum except during testing. All animal handling and experimental protocols were approved by an Institutional Animal Care and Use Committee (IACUC). All experiments were performed during the light cycle. The bone cancer pain experiments were performed on adult male C3H/HeJ mice (Jackson Laboratories, Bar Harbor, Me.), approximately 7-8 weeks old, weighing 25-30 g at the time of tumor cell injection. The mice were housed in accordance with National Institutes of Health Guidelines and kept in a vivarium maintained at 22° C. with a 12 h alternating light-dark cycle. They were given food and water ad libitum except during testing. All procedures were approved by the Institutional Animal Care and Use Committee at the University of Minnesota. All procedures also adhered to the guidelines of the Committee for Research and Ethical Issues of IASP published in PAIN, 16 (1983) 109-110.
An arthrotomy was performed following induction of general anesthesia with sodium pentobarbital (50 mg/kg, intraperitoneal (i.p.)). A needle was inserted into the intramedullary canal to create a pathway for the sarcoma cells. A depression was then made using a pneumatic dental high-speed hand-piece. Mice were injected with Hanks-buffered saline (HBSS) (20 μL, Sigma, St. Louis, Mo.) or HBSS containing the 2472 sarcoma line (ATCC, Rockville, Md., USA). The injection site was sealed with a dental amalgam plug to confine the cells within the intramedullary canal followed by irrigation with sterile water. […] Clips were removed at day 5 so as not to interfere with behavioral testing.
A variety of behavioral measurements was used to assess the extent of bone cancer pain as described previously [Schwei M J, Honore P, Rogers S D, Salak-Johnson J L, Finke M P, Ramnaraine M L, et al. Neurochemical and cellular reorganization of the spinal cord in a murine model of bone cancer pain. J Neurosci 1999; 19:10886-97]. All mice were tested and values obtained for behavioral responses before compound or vehicle administration, and then retested 1 hour following oral dosing. Percent effects were calculated as follows: (1−((Compound Value−Sham Value)/(Vehicle Value−Sham Value)))×100. The number of spontaneous guarding behaviors, representative of nociceptive behavior, was recorded during a 2 min observation period. Guarding was defined as the amount of time an animal held the hind paw aloft while not ambulatory. Mechanical allodynia at the knee joint was evaluated by normally non-noxious palpation of the distal femur every second for 2 min. Following the 2 min palpation, the mice were placed in the observation box and their palpation-induced guarding behavior was measured for an additional 2 min. Normal limb use during spontaneous ambulation in an open field was scored on a scale of 5-0: (5) normal use, (4) some limping, but not pronounced, (3) pronounced limp, (2) limp and guarding behavior, (1) partial non-use of limb, and (0) complete lack of limb use.
Compound A was dissolved in 100% polyethylene glycol (PEG 400) for oral administration in a 2 mL/kg injection volume. Compounds B, C, and D were dissolved in 10% ethanol, 20% Tween 80 and 70% polyethylene glycol-400 for oral administration in a 2 mL/kg injection volume. All compounds were dosed orally (p.o.) 60 minutes before behavioral testing.

[3] = 30 μmol/kg p.o., acute dosing, fifteen days following tumor cells inoculation

CC(C)(C)c1ccc2c(c1)CC[C@H]2NC(=O)Nc1cccc2[nH]ncc12 [Compound A, N-[(1R)-5-tert-butyl-2,3-dihydro-1H-inden-1-yl]-N′-1H-indazol-4-ylurea]
ED50 [1]: 40 µmol/kg | reversal of spontaneous guarding ([2]; 10 μmol/kg p.o. twice-daily for 9 days): 45±3% | reversal of evoked pain induced by palpation of the cancerous limb (% effects) ([2]; 30 μmol/kg p.o., acute dosing): 65±4% | reversal of spontaneous guarding [2, 3]: 70±1% | reversal of the pain-induced decrease in ambulation [2, 3]: 85±15% | evoked pain induced by palpation of the cancerous limb, repeated vs single dosing ([2]; repeated dosing): Improved analgesic efficacy | effect on spontaneous ambulation ([2]; repeated dosing (10 μmol/kg p.o. twice-daily for 9 days)): 43±0% | analgesic effect on spontaneous ambulation ([2]; single dose 10 μmol/kg p.o.): 19±0% | analgesic effect on spontaneous guarding ([2]; single dose 10 μmol/kg p.o.): 18±6%
